Molecular target: T1, ferroportin (Fpn) (Mus musculus, UniProt Q9JHI9)
T1 construct: endogenous in cells; host or cells: J774 mouse macrophage cell line, induced with Fe(III)NTA
T1 sequence (Q9JHI9 1-570): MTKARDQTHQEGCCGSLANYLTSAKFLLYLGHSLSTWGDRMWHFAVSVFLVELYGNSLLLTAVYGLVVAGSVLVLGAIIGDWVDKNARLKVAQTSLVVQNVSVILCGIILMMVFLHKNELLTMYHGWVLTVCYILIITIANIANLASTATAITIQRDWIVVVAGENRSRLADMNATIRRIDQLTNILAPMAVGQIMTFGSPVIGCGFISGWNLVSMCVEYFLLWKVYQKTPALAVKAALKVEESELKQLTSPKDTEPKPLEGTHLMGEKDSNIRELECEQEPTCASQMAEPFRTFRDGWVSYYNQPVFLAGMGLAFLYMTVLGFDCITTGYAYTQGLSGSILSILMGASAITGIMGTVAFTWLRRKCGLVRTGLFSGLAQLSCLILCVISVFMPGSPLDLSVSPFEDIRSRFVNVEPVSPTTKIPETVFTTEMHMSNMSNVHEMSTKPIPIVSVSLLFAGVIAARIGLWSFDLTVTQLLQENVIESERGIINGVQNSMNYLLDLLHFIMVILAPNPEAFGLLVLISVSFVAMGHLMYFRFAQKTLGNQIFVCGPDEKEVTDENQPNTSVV
Test: Hepcidin Internalization Assay (J774)
Format: cell-based
Settings: J774 cells, 25 nM TMR-hepcidin, 2 hours; average of multiple measurements; read-out: Average (AVE) IC50 of Fpn inhibitors in the hepcidin internalization assay
Description: This cellular assay allows quantification of the binding of hepcidin to ferroportin (Fpn) through microscopic detection of internalization of a fluorescently labeled hepcidin into J774 cells. […] Binding of hepcidin to Fpn triggers internalization and degradation of both hepcidin and Fpn. […] Therefore, microscopic detection of cell-associated TMR fluorescence is a measure of hepcidin binding to Fpn and internalization of hepcidin and Fpn. If TMR-hepcidin is prevented from binding to Fpn, cellular TMR fluorescence remains low (Durrenberger et al, 2013). The effect of small molecular weight Fpn inhibitor compounds in this assay was evaluated in vitro as described below. […] Cat. 655090) and grown at 37° C. with 5% CO2. After overnight incubation, cells were washed 3 times with pre-warmed DMEM w/o phenol red, 30 μl/well of DMEM w/o phenol red was added after the final wash and 10 μl/well of dilution series of test compounds were added in triplicates. […] Cells were incubated in a total volume of 50 μl at 37° C. with 5% CO2 for 2 hours, then Hoechst 33342 dye was added to a final concentration of 0.5 μg/ml to stain nuclei and further incubated for 10 min. at 37° C. with 5% CO2. […] After removal of the paraformaldehyde solution, cells were washed 3 times with PBS leaving 100 μl per well and the plates were sealed with foil plate seal. […] The acquired image data was analysed with the […] analysis software. […] IC50 values were calculated with the Sum(Mean) raw data using “log(inhibitor) vs. response” curve fitting of Prism 5 software (GraphPad Software Inc., version 5.02). For each data set the fit of the “log(inhibitor) vs. response (three parameters)” model was compared to the fit of the “log(inhibitor) vs. response-Variable slope (four parameters)” model and the IC50 data of the preferred model was used.

| IC50 [nM] | SMILES |
| --- | --- |
| 9 | COCCn1c(CCNCCc2nc3c(NCc4ncccc4F)nccc3o2)nc2ccccc21 [Example Compound No. 1, N-((3-fluoropyridin-2-yl)methyl)-2-(2-((2-(1-(2-methoxyethyl)-1H-benzo[d]imidazol-2-yl)ethyl)amino)ethyl)oxazolo[4,5-c]pyridin-4-amine] |
| 15 | Fc1cccnc1CNc1nccc2oc(CCNCCc3nc4ccccc4n3CC3CC3)nc12 [Example Compound No. 2, 2-(2-((2-(1-(cyclopropylmethyl)-1H-benzo[d]imidazol-2-yl)ethyl)amino)ethyl)-N-((3-fluoropyridin-2-yl)methyl)oxazolo[4,5-c]pyridin-4-amine] |
| 9 | COCCOCCn1c(CCNCCc2nc3c(NCc4ncccc4F)nccc3o2)nc2ccccc21 [Example Compound No. 3, N-((3-fluoropyridin-2-yl)methyl)-2-(2-((2-(1-(2-(2-methoxyethoxy)ethyl)-1H-benzo[d]imidazol-2-yl)ethyl)amino)ethyl)oxazolo[4,5-c]pyridin-4-amine] |
| 4 | CC(C)OCCn1c(CCNCCc2nc3c(NCc4ncccc4F)nccc3o2)nc2ccccc21 [Example Compound No. 4, N-((3-fluoropyridin-2-yl)methyl)-2-(2-((2-(1-(2-isopropoxyethyl)-1H-benzo[d]imidazol-2-yl)ethyl)amino)ethyl)oxazolo[4,5-c]pyridin-4-amine] |
| 7 | COCCn1c(CCN2CC(c3nc4c(NCc5ncccc5F)nccc4o3)C2)nc2ccccc21 [Example Compound No. 5, N-((3-fluoropyridin-2-yl)methyl)-2-(1-(2-(1-(2-methoxyethyl)-1H-benzo[d]imidazol-2-yl)ethyl)azetidin-3-yl)oxazolo[4,5-c]pyridin-4-amine] |
| 11 | COCCOCCn1c(CCN2CC(c3nc4c(NCc5ncccc5F)nccc4o3)C2)nc2ccccc21 [Example Compound No. 6, N-((3-fluoropyridin-2-yl)methyl)-2-(1-(2-(1-(2-(2-methoxyethoxy)ethyl)-1H-benzo[d]imidazol-2-yl)ethyl)azetidin-3-yl)oxazolo[4,5-c]pyridin-4-amine] |
| 83 | COCCn1c(CCNCCc2nc3c(NCc4ncccc4F)nccc3o2)nc2cc3c(cc21)OCCO3 [Example Compound No. 7, N-((3-fluoropyridin-2-yl)methyl)-2-(2-((2-(1-(2-methoxyethyl)-6,7-dihydro-1H-[1,4]dioxino-[2′,3′:4,5]benzo[1,2-d]imidazol-2-yl)ethyl)amino)ethyl)oxazolo[4,5-c]pyridin-4-amine] |
| 7 | Fc1cccnc1CNc1nccc2oc(CCNCCc3nc4ccccc4n3CCN3CCOCC3)nc12 [Example Compound No. 8, N-((3-fluoropyridin-2-yl)methyl)-2-(2-((2-(1-(2-morpholinoethyl)-1H-benzo[d]imidazol-2-yl)ethyl)amino)ethyl)oxazolo[4,5-c]pyridin-4-amine] |
| 827 | Fc1cccnc1CNc1nccc2oc(CCNCCc3nc4cc5c(cc4n3CCN3CCOCC3)OCCO5)nc12 [Example Compound No. 9, N-((3-fluoropyridin-2-yl)methyl)-2-(2-((2-(1-(2-morpholinoethyl)-6,7-dihydro-1H-[1,4]dioxino[2′,3′:4,5]benzo[1,2-d]imidazol-2-yl)ethyl)amino)ethyl)oxazolo[4,5-c]pyridin-4-amine] |
| 8 | Fc1cccnc1CNc1nccc2oc(CCNCCc3nc4ccccc4n3Cc3ccccc3)nc12 [Example Compound No. 10, 2-(2-((2-(1-benzyl-1H-benzo[d]imidazol-2-yl)ethyl)amino)ethyl)-N-((3-fluoropyridin-2-yl)methyl)oxazolo[4,5-c]pyridin-4-amine] |
| 5 | COc1cccc(Cn2c(CCNCCc3nc4c(NCc5ncccc5F)nccc4o3)nc3ccccc32)c1 [Example Compound No. 11, N-((3-fluoropyridin-2-yl)methyl)-2-(2-((2-(1-(3-methoxybenzyl)-1H-benzo[d]-imidazol-2-yl)ethyl)amino)ethyl)oxazolo[4,5-c]pyridin-4-amine] |
